{
  "source": "ChEMBL document CHEMBL3856231",
  "about": "(J Med Chem, 2016)",
  "key": {"[1]": {"test": "Drug metabolism in rat liver microsomes assessed as oxidative/degradative M1 metabolite formation at 10 uM after 120 mins in presence of NADPH by LC/MS/MS analysis", "format": "ADME", "settings": "2 h"}, "Cytochrome P450 2C19": {"target": "Cytochrome P450 2C19 (Homo sapiens, UniProt P33261)", "sequence (P33261 whole entry)": "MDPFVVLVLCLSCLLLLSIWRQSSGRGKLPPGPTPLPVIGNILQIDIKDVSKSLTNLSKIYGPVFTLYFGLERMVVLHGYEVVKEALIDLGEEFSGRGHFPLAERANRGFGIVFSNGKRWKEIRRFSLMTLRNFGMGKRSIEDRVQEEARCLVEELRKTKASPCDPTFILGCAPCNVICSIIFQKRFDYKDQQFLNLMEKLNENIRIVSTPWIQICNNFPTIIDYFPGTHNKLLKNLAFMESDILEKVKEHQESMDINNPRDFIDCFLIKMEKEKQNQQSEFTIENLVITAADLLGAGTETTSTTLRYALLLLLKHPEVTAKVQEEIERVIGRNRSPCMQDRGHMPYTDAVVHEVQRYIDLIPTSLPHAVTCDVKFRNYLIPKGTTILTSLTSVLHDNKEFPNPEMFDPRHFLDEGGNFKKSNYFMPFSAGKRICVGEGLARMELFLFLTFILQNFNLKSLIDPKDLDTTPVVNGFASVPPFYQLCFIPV", "test": "Inhibition of CYP2C19 in human liver microsomes using S-mephenytoin as substrate in presence of NADPH by LC/MS/MS analysis", "format": "ADME"}, "[2]": {"test": "Dose normalized AUC in CD-1 mouse at 10 mg/kg, po by LC/MS/MS analysis", "format": "ADME, organism-based", "settings": "in vivo"}, "[3]": {"test": "Drug metabolism in human liver microsomes assessed as oxidative/degradative M6 metabolite formation at 10 uM after 120 mins in presence of NADPH by LC/MS/MS analysis", "format": "ADME", "settings": "2 h"}, "[4]": {"test": "Dose normalized AUC in Sprague-Dawley rat at 5 mg/kg, po by LC/MS/MS analysis", "format": "ADME, organism-based", "settings": "in vivo"}, "[5]": {"test": "Half life in human liver microsomes by LC/MS/MS analysis", "format": "ADME"}, "[6]": {"test": "Half life in cynomolgus monkey liver microsomes by LC/MS/MS analysis", "format": "ADME, Macaca fascicularis"}, "[7]": {"test": "Half life in rat liver microsomes by LC/MS/MS analysis", "format": "ADME"}, "Cytochrome P450 1A2": {"target": "T1, Cytochrome P450 1A2 (Homo sapiens, UniProt P05177)", "T1 sequence (P05177 whole entry)": "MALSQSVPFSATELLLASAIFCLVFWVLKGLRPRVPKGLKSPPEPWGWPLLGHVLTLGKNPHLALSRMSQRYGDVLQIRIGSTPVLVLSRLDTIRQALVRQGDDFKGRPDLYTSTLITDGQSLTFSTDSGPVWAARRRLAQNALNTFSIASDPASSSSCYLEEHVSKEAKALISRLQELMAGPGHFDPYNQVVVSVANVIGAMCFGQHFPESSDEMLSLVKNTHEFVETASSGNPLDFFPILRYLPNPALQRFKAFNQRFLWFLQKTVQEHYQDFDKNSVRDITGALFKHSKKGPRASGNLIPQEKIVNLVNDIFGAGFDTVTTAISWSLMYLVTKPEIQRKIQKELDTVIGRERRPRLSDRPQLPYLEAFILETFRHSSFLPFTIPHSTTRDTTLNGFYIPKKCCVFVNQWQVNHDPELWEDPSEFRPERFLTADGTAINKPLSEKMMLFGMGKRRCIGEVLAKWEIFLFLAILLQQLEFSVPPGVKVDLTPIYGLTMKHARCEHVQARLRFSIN", "test": "Inhibition of CYP1A2 in human liver microsomes using phenacetin as substrate in presence of NADPH by LC/MS/MS analysis", "format": "ADME"}, "[8]": {"test": "Drug metabolism in human liver microsomes assessed as (1S,5R,6S,7R)-7-[5-Chloro-2-((S)-1-methoxy-7-morpholin-4-yl-6,7,8,9-tetrahydro-5H-benzocyclohepten-2-ylamino)-pyrimidin-4-ylamino]-3-oxa-tricyclo[3.2.1.0(2,4)]octane-6-carboxylic acid amide formation at 10 uM after 120 mins in presence of NADPH by LC/MS/MS analysis", "format": "ADME", "settings": "2 h"}, "[9]": {"test": "Drug metabolism in rat liver microsomes assessed as oxidative/degradative M6 metabolite formation at 10 uM after 120 mins in presence of NADPH by LC/MS/MS analysis", "format": "ADME", "settings": "2 h"}, "[10]": {"test": "Drug metabolism in rat liver microsomes assessed as oxidative/degradative M2 metabolite formation at 10 uM after 120 mins in presence of NADPH by LC/MS/MS analysis", "format": "ADME", "settings": "2 h"}, "[11]": {"test": "Drug metabolism in human liver microsomes assessed as oxidative/degradative M5 metabolite formation at 10 uM after 120 mins in presence of NADPH by LC/MS/MS analysis", "format": "ADME", "settings": "2 h"}, "[12]": {"test": "Drug metabolism in human liver microsomes assessed as oxidative/degradative M1 metabolite formation at 10 uM after 120 mins in presence of NADPH by LC/MS/MS analysis", "format": "ADME", "settings": "2 h"}, "[13]": {"test": "Drug metabolism in rat liver microsomes assessed as oxidative/degradative M5 metabolite formation at 10 uM after 120 mins in presence of NADPH by LC/MS/MS analysis", "format": "ADME", "settings": "2 h"}, "[14]": {"test": "Drug metabolism in rat liver microsomes assessed as (1S,5R,6S,7R)-7-[5-Chloro-2-((S)-1-methoxy-7-morpholin-4-yl-6,7,8,9-tetrahydro-5H-benzocyclohepten-2-ylamino)-pyrimidin-4-ylamino]-3-oxa-tricyclo[3.2.1.0(2,4)]octane-6-carboxylic acid amide formation at 10 uM after 120 mins in presence of NADPH by LC/MS/MS analysis", "format": "ADME", "settings": "2 h"}, "[15]": {"test": "Dose normalized AUC in cynomolgus monkey at 10 mg/kg, po by LC/MS/MS analysis", "format": "ADME, organism-based, Macaca fascicularis", "settings": "in vivo"}, "Focal adhesion kinase 1": {"target": "Focal adhesion kinase 1 (Homo sapiens, UniProt Q05397)", "test": "Inhibition of human FAK expressed in baculovirus after 30 mins using biotinyl-amino-hexanoyl-EQEDEPEGDYFEWLE-amide as substrate by TRF assay"}, "Cytochrome P450 2C9": {"target": "Cytochrome P450 2C9 (Homo sapiens, UniProt P11712)", "test": "Inhibition of CYP2C9 in human liver microsomes using diclofenac as substrate in presence of NADPH by LC/MS/MS analysis", "format": "ADME"}, "[16]": {"test": "Half life in CD-1 mouse liver microsomes by LC/MS/MS analysis", "format": "ADME"}, "[17]": {"target": "ALK tyrosine kinase receptor (Homo sapiens, UniProt Q9UM73)", "sequence (Q9UM73 19-1620 limits assumed)": "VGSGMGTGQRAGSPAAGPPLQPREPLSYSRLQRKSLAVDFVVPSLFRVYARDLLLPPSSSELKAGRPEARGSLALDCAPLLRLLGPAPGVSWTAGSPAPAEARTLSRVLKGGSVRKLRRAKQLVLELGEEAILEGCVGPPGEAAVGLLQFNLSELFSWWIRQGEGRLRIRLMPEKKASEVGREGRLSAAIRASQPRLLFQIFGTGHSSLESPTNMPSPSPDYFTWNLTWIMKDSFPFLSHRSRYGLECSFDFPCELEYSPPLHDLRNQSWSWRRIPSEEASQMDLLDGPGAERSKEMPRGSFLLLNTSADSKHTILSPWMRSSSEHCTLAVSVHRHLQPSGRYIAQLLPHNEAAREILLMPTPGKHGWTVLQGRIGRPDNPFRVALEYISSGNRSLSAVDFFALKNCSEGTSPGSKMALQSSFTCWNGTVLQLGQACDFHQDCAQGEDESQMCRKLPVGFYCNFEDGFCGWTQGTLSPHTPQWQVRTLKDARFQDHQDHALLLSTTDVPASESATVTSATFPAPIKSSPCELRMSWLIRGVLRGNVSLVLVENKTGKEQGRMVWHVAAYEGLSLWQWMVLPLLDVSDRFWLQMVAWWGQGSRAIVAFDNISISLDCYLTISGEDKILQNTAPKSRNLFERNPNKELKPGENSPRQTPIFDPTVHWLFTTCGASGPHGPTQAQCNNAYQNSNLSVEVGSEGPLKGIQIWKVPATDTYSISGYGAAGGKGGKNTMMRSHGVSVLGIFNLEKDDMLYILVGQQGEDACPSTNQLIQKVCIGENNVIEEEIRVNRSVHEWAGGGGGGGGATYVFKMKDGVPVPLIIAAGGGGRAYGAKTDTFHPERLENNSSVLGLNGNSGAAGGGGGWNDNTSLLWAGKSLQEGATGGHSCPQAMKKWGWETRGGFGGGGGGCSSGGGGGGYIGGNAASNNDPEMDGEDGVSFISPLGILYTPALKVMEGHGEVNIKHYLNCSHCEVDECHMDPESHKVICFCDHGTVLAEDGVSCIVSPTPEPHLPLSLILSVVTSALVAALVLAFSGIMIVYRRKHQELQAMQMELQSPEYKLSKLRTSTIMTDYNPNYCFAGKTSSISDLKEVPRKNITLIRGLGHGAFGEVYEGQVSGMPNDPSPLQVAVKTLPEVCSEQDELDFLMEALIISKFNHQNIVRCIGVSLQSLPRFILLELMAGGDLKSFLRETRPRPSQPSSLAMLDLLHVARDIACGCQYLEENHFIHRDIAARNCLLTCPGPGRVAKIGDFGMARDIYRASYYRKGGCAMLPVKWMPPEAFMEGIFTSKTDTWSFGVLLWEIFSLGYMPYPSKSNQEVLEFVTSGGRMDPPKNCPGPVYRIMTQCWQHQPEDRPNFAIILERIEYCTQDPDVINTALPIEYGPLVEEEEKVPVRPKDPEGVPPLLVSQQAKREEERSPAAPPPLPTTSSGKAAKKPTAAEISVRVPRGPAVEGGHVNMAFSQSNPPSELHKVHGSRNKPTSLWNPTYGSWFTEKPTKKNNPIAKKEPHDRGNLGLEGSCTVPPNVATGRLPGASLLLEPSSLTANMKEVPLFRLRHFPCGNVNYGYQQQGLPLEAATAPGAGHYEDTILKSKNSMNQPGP", "test": "Inhibition of NPM-ALK phosphorylation in human SUP-M2 cells after 2 to 3 hrs by ELISA", "format": "cell-based"}, "[18]": {"target": "Voltage-gated inwardly rectifying potassium channel KCNH2 (Homo sapiens, UniProt Q12809)", "sequence (Q12809 whole entry)": "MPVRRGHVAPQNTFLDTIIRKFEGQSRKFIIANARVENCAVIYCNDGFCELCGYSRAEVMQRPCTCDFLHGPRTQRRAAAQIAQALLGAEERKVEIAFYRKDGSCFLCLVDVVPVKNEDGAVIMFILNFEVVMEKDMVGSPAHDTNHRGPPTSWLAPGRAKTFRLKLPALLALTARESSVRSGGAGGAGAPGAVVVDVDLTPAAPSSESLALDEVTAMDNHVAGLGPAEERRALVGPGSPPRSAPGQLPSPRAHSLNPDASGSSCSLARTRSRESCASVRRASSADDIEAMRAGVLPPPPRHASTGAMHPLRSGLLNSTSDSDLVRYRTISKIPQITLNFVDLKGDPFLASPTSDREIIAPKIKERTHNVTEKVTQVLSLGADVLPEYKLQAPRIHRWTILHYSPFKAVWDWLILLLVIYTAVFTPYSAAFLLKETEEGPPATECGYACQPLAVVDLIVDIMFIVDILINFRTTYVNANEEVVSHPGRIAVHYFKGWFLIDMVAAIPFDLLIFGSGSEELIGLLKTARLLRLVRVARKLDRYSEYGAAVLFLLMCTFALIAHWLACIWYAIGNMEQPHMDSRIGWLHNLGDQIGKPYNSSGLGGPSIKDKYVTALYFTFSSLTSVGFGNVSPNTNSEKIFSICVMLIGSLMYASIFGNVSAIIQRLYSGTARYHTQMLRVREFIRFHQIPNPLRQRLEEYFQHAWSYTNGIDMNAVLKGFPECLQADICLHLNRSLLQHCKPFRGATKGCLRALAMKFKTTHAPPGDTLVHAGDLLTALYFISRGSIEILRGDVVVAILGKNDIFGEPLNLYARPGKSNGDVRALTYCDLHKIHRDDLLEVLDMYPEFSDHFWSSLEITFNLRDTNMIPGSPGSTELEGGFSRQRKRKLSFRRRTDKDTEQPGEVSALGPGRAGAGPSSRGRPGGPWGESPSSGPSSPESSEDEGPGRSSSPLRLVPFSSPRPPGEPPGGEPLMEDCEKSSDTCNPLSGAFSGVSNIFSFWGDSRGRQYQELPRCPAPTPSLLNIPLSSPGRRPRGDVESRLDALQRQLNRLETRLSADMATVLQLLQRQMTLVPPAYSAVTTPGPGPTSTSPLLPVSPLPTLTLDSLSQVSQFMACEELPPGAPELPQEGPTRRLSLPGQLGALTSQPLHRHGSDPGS", "test": "Inhibition of human ERG"}, "Insulin receptor [19]": {"target": "T2, Insulin receptor (Homo sapiens, UniProt P06213)", "T2 sequence (P06213 28-758 limits assumed)": "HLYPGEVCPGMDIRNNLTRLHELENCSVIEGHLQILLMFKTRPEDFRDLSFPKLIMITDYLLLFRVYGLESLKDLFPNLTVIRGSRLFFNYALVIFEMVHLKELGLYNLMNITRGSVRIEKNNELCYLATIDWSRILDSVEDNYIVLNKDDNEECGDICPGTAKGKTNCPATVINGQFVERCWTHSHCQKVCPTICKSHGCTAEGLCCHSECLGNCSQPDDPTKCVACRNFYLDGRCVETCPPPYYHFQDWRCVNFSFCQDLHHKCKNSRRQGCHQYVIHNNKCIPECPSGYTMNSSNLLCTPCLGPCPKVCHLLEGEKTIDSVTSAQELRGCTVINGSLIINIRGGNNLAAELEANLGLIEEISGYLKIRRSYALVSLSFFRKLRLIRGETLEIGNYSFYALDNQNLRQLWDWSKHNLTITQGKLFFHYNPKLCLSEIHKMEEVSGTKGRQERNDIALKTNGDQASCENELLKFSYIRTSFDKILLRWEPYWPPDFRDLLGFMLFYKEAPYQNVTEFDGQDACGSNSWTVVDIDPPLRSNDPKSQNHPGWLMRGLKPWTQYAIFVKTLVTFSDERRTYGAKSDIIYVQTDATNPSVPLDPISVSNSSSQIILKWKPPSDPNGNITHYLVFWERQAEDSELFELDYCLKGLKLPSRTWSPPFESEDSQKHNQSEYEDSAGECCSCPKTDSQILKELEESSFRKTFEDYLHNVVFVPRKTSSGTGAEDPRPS", "T2 sequence (P06213 763-1382 limits assumed)": "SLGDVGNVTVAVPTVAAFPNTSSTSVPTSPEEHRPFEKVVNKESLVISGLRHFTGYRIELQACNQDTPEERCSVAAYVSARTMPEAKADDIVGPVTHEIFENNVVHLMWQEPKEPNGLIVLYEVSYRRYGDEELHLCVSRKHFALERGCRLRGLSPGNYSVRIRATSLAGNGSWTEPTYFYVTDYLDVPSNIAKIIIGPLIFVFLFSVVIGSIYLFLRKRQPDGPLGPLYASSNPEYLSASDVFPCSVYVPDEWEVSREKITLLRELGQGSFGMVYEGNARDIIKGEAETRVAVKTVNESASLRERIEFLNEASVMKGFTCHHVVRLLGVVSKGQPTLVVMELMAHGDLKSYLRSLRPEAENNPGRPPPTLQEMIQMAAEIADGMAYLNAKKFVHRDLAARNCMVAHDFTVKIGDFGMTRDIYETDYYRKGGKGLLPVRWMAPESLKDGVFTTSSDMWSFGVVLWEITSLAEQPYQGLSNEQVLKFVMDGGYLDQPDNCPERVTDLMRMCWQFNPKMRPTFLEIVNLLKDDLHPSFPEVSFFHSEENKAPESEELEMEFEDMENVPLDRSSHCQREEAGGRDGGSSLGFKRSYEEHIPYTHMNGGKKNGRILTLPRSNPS", "description": "Inhibition of recombinant human INSR expressed in baculovirus using ATP as substrate after 15 mins by TRF assay"}, "[20]": {"test": "AUC (0 to infinity) in Sprague-Dawley rat at 5 mg/kg, po by LC/MS/MS analysis", "format": "ADME, organism-based", "parameters": "dose 5 mg/kg, time infinity, route oral", "settings": "in vivo"}, "Cytochrome P450 2D6": {"target": "Cytochrome P450 2D6 (Homo sapiens, UniProt P10635)", "sequence (P10635 whole entry)": "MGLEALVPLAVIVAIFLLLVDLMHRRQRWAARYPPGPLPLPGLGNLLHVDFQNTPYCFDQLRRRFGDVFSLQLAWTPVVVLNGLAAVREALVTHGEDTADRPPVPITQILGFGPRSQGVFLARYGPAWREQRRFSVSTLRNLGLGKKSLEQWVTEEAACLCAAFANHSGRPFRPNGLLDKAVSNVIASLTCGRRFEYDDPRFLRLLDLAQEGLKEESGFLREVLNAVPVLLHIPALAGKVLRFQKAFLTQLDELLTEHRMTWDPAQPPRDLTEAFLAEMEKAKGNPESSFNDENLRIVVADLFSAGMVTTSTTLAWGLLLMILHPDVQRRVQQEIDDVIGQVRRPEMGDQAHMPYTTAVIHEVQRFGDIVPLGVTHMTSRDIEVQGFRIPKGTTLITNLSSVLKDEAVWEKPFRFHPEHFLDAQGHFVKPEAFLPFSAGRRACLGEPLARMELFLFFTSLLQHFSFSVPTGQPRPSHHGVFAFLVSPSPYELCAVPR", "test": "Inhibition of CYP2D6 in human liver microsomes using dextromethorphan as substrate in presence of NADPH by LC/MS/MS analysis", "format": "ADME"}, "Insulin receptor [21]": {"target": "T2, Insulin receptor", "remark": "listed apart in the source", "description": "Inhibition of INSR (unknown origin) by cell based assay"}, "[22]": {"test": "Drug metabolism in human liver microsomes assessed as oxidative/degradative M2 metabolite formation at 10 uM after 120 mins in presence of NADPH by LC/MS/MS analysis", "format": "ADME", "settings": "2 h"}},
  "note": "pIC50: −log10 of the molar value.",
  "data": [
    {"smiles": "COc1c(Nc2ncc(Cl)c(N[C@H]3[C@@H](C(N)=O)[C@@H]4C=C[C@H]3C4)n2)ccc2c1CC[C@@H](N1CCOCC1)CC2", "values": [
      {"measurement": "Drug metabolism", "setting": "[1]", "value": "Metabolite_Detected"},
      {"measurement": "pIC50", "setting": "Cytochrome P450 2C19", "value": "< 5.00"},
      {"measurement": "AUC/dose", "setting": "[2]", "value": 299, "unit": "ng·h/mL"},
      {"measurement": "Drug metabolism", "setting": "[3]", "value": "Metabolite_Detected"},
      {"measurement": "AUC/dose", "setting": "[4]", "value": 246, "unit": "ng·h/mL"},
      {"measurement": "half-life", "setting": "[5]", "value": "10 to 11", "unit": "min"},
      {"measurement": "half-life", "setting": "[6]", "value": 17, "unit": "min"},
      {"measurement": "half-life", "setting": "[7]", "value": "7 to 16", "unit": "min"},
      {"measurement": "pIC50", "setting": "Cytochrome P450 1A2", "value": "< 5.00"},
      {"measurement": "Drug metabolism", "setting": "[8]", "value": "Metabolite_Detected"},
      {"measurement": "Drug metabolism", "setting": "[9]", "value": "Metabolite_Detected"},
      {"measurement": "Drug metabolism", "setting": "[10]", "value": "Metabolite_Detected"},
      {"measurement": "Drug metabolism", "setting": "[11]", "value": "Metabolite_Detected"},
      {"measurement": "Drug metabolism", "setting": "[12]", "value": "Metabolite_Detected"},
      {"measurement": "Drug metabolism", "setting": "[13]", "value": "Metabolite_Detected"},
      {"measurement": "Drug metabolism", "setting": "[14]", "value": "Metabolite_Detected"},
      {"measurement": "AUC/dose", "setting": "[15]", "value": 95, "unit": "ng·h/mL"},
      {"measurement": "pIC50", "setting": "Focal adhesion kinase 1", "value": "7.52 to 7.60"},
      {"measurement": "pIC50", "setting": "Cytochrome P450 2C9", "value": "< 5.00"},
      {"measurement": "half-life", "setting": "[16]", "value": "8 to 13", "unit": "min"},
      {"measurement": "pIC50", "setting": "[17]", "value": "7.38 to 7.70"},
      {"measurement": "pIC50", "setting": "[18]", "value": "< 5.00"},
      {"measurement": "pIC50", "setting": "Insulin receptor [19]", "value": "5.90 to 6.18"},
      {"measurement": "AUC(0-inf)", "setting": "[20]", "value": 1200, "unit": "ng·h/mL"},
      {"measurement": "pIC50", "setting": "Cytochrome P450 2D6", "value": "< 5.00"},
      {"measurement": "pIC50", "setting": "Insulin receptor [21]", "value": "< 5.00"},
      {"measurement": "Drug metabolism", "setting": "[22]", "value": "Metabolite_Detected"}
    ]}
  ]
}
